Reference: patent US20230132823A1, “BI-FUNCTIONAL COMPOUNDS AND METHODS FOR TARGETED UBIQUITINATION OF ANDROGEN RECEPTOR” (MONTELINO THERAPEUTICS, INC., priority 2020, published 2023)

Tests used:
[1] = molecular target: T1, estrogen receptor alpha (ER) (Homo sapiens, UniProt P03372); test: Immunoblot of ER alpha in 22Rv1 cells; assay type: cell-based; conditions: 22Rv1, 24 hours, up to 10 μM
T1 construct: progesterone receptor (PR) a and b, and estrogen receptor alpha (ER); endogenous in cells; host or cells: 22Rv1
T1 sequence (P03372 1-595): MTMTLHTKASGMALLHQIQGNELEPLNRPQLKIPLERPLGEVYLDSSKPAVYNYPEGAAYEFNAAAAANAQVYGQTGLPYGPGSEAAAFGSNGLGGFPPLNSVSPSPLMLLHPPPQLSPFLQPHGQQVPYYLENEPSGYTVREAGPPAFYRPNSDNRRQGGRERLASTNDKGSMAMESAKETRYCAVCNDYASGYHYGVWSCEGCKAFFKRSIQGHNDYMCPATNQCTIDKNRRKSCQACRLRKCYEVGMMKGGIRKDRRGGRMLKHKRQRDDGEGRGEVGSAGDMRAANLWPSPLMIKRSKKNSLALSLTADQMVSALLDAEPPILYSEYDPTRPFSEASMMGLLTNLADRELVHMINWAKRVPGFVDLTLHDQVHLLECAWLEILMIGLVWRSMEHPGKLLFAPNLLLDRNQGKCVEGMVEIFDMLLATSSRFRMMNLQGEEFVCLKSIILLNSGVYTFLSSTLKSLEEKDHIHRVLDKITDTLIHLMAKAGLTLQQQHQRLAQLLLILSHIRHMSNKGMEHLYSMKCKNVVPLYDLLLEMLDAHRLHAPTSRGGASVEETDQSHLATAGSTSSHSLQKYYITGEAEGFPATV
Procedure: Cell Culture. Human CaP cell lines, LNCaP, 22Rv1, VCaP, PC3, and DU145 are obtained from the American Type Culture Collection (ATCC) and maintained in the standard culture media: RPMI-1640 supplemented with 10% fetal bovine serum (FBS). LNCaP, 22Rv1, and VCaP are androgen-responsive cell lines, while PC3 and DU145 are not. To establish SAT resistant CaP cell lines, LNCaP, 22Rv1, and VCaP are treated continuously with 10-50 μM abiraterone, apalutamide, darolutamide, or enzalutamide. After 3-6 months, stable cell lines are established and designated as LNCaP-Abi^R, LNCaP-Apa^R, LNCaP-Daro^R, LNCaP-Enz^R, VCaP-Abi^R, VCaP-Apa^R, VCaP-Daro^R, VCaP-Enz^R, 22Rv1-Abi^R, 22Rv1-Apa^R, 22Rv1-Daro^R and 22Rv1-Enz^R. Unless otherwise specified, the standard culture media for these SAT-resistant cell lines included 10 μM of their respective SAT. For the proteasome inhibitor study, the inhibitors MG132 and Epoxomicin are used. The E3 ligase inhibitors Heclin, Nutlin 3a, Thalidomide, and VH298 are used. […] Mycoplasma contamination is also assessed using a PCR based detection system.
Immunoblot Analysis. […] Cell lysates are then centrifuged and protein in the supernatant is quantified. […] Following the incubation with appropriate secondary antibody, immunoblots are analyzed using SuperSignal West Femto Maximum Sensitivity Substrate (ThermoFisher).

22Rv1 = test: LDH assay for non-specific cytotoxicity in 22Rv1; assay type: cell-based, human; conditions: 22Rv1, up to 20 μM, six days (0.01, 0.1, 1, 10 and 20 μM tested)
Procedure: Apoptosis Assay. An apoptosis assay is carried out using the Thermo Fisher ApoDETECT Annexin V-FITC kit following the protocol recommended by the vendor. Briefly, after treatment with 1 μM of Test Compound for 3 to 24 hours, cells are fixed with 80% ethanol and washed with PBS three times. Then, fixed cells are incubated with Annexin V-FITC in PBS solution for 30 minutes at room temperature. After washing three times with PBS, cells are treated with 300 nM DAPI in PBS for 5 minutes at room temperature. Finally, after washing three times with PBS, mounting solution is added and the cells are visualized using immunofluorescence microscopy. Next, a TUNEL assay is performed using Promega DeadEnd Fluorometric TUNEL system. After treatment with Test Compound and fixation as described above in the Annexin-V experiment, 100 μl of equilibration buffer is incubated for 10 min. Then, 50 μl of TdT reaction mix is added and incubated for 60 min at 37° C. in a humidified chamber. Finally, stop solution is added and samples are mounted on slides using mounting medium. To assess non-specific cytotoxicity, an LDH assay kit is used.

effect on expression level of estrogen receptor alpha (ER) [1]: no visible effect
Compound: Cc1ncsc1-c1ccc([C@H](C)NC(=O)[C@@H]2C[C@@H](O)CN2C(=O)[C@@H](NC(=O)CCCCNC(=O)COc2c(-c3csc(N4CCOCC4)n3)ccc(F)c2F)C(C)(C)C)cc1 [Example 16, (2S,4R)-1-((S)-2-(5-(2-(2,3-difluoro-6-(2-morpholinothiazol-4-yl)phenoxy)acetamido)pentanamido)-3,3-dimethylbutanoyl)-4-hydroxy-N-((S)-1-(4-(4-methylthiazol-5-yl)phenyl)ethyl)pyrrolidine-2-carboxamide]
non-specific cytotoxic effect, lactate dehydrogenase (LDH) assay (22Rv1): no non-specific cytotoxic effect
